Test results published in PMC10289957 (Investigational New Drugs, 2023).
Where two headings read alike, the source gives them in different places. Marks after values point to notes of the source that are not given here. One block for each compound: values may come before it.

Legend:
preclinical models = tested on: preclinical models; set-up: method as in PMID 29774094, PMID 33273059; conditions: cited from earlier work
[1] = human, in vivo
[2] = tested on: patients with advanced solid tumors; conditions: cited from earlier work
advanced solid tumors = conditions: MK-8353 300−400 mg twice daily, 3/15 patients; cited from earlier work
[3] = tested on: human cancer xenograft models; conditions: various human cancer xenograft models; cited from earlier work
clinical = conditions: human, in vivo, Observed median time of maximum plasma concentration, range over dose levels
[4] = Plasma pharmacokinetics after oral administration of the combination (noncompartmental); conditions: for AUC0−12 / AUC0−last / Cmax / tlast / tmax: plasma; for AUC0−12 / AUC0−last / Cmax: geometric mean (% geometric CV); for tlast / tmax: median (range)
advanced cancers = tested on: advanced cancers; set-up: method as in PMID 25385055; conditions: selumetinib monotherapy, patients with advanced cancers; cited from earlier work
patients = tested on: patients; set-up: method as in PMID 30681641; conditions: cited from earlier work
[5] = MK-8353 400 mg twice daily (MTD)
[6] = MK-8353 400 mg twice daily, n = 7
[7] = MK-8353 800 mg twice daily, 6 patients
[8] = cycle 1 Day 1, MK-8353 50 mg + selumetinib 25 mg oral BID
[9] = cycle 1 Day 1, MK-8353 100 mg + selumetinib 50 mg oral BID
[10] = cycle 1 Day 1, MK-8353 150 mg + selumetinib 75 mg oral BID
[11] = cycle 1 Day 4, MK-8353 50 mg + selumetinib 25 mg oral BID
[12] = cycle 1 Day 4, MK-8353 100 mg + selumetinib 50 mg oral BID
[13] = cycle 1 Day 4, MK-8353 150 mg + selumetinib 75 mg oral BID

Structure (SMILES): Cc1cccc(CN2C(=O)c3cc(-c4nc(Nc5ccnn5C)ncc4C)cn3C[C@@H]2C)n1 [AZ6197]
Antitumor activity of ERK inhibitor plus selumetinib versus each agent alone (preclinical models): greater antitumor activity versus each agent alone

Structure (SMILES): COC[C@H]1Cn2cc(-c3nc(Nc4ccnn4C)ncc3C)nc2C(=O)N1Cc1ccc(F)c(F)c1 [AZD0364]
Antitumor activity of ERK inhibitor plus selumetinib versus each agent alone (preclinical models): greater antitumor activity versus each agent alone

Structure (SMILES): CS[C@@]1(C(=O)Nc2ccc3[nH]nc(-c4ccc(OC(C)C)nc4)c3c2)CCN(CC(=O)N2CC=C(c3ccc(-c4ncn(C)n4)cc3)CC2)C1 [MK-8353]
Accumulation at steady state [1]: ≤ 2 fold
Eye disorders [2, 5]: no eye disorders occurred
Macular rash [2, 5]: 1 n
Maculopapular rash [2, 5]: 3 n
Pruritus [2, 5]: 1 n
Urticaria [2, 5]: 1 n
Diarrhea [2, 6]: 2 n
Dyspepsia [2, 6]: 2 n
Nausea [2, 6]: 4 n
Vomiting [2, 6]: 2 n
Safety and tolerability ([2]; MK-8353 400 mg twice daily): safe and well tolerated
Blurred vision [2, 7]: 2 n
Visual impairment [2, 7]: 3 n
Vitreous floaters [2, 7]: 1 n
MTD of MK-8353 monotherapy [2]: 400 mg twice daily
Patients with a partial response (advanced solid tumors): 20%
Antitumor activity [3]: Antitumor activity of MK-8353 was demonstrated
tmax (clinical; cycle 1, all dose levels): 1.97 to 2.05 h

Geometric mean minimum plasma concentration (Ctrough) ([4]; from lowest to highest dose): 0.008 to 0.026 µM
AUC0−12 [4, 8]: 0.161 (52.4) h∙µmol/L
AUC0−last [4, 8]: 0.144 (47.7) h∙µmol/L
Cmax [4, 8]: 0.0437 µM
tlast [4, 8]: 8.02 (7.83–8.07) h
tmax [4, 8]: 1.88 (0.92–2.05) h
AUC0−12 [4, 9]: 0.344 (73.5)^l h∙µmol/L
AUC0−last [4, 9]: 0.261 (118.6) h∙µmol/L
Cmax [4, 9]: 0.0935 µM
tlast [4, 9]: 8.00 (3.92–11.33) h
tmax [4, 9]: 1.02 (0.88–2.08) h
AUC0−12 [4, 10]: 0.690 (56.3)^j h∙µmol/L
AUC0−last [4, 10]: 0.547 (61.3) h∙µmol/L
Cmax [4, 10]: 0.158 µM
tlast [4, 10]: 8.00 (7.83–8.37) h
tmax [4, 10]: 1.92 (0.83–4.00) h
AUC0−12 [4, 11]: 0.230 (63.5) h∙µmol/L
AUC0−last [4, 11]: 0.202 (60.5) h∙µmol/L
Cmax [4, 11]: 0.0563 µM
tlast [4, 11]: 8.05 (7.97–8.08) h
tmax [4, 11]: 1.88 (1.87–2.00) h
AUC0−12 [4, 12]: 0.386 (49.6)^k h∙µmol/L
AUC0−last [4, 12]: 0.267 (102.1) h∙µmol/L
Cmax [4, 12]: 0.0724 µM
tlast [4, 12]: 8.00 (5.83–8.33) h
tmax [4, 12]: 1.96 (0.95–3.97) h
AUC0−12 [4, 13]: 0.681 (35.7)^k h∙µmol/L
AUC0−last [4, 13]: 0.486 (87.7)^f h∙µmol/L
Cmax [4, 13]: 0.0977 µM
tlast [4, 13]: 8.00 (0.00–8.05)^h
tmax [4, 13]: 1.07 (0.00–5.92)^h
Accumulation at steady state ([4]; twice daily dosing): ≤ 2 fold
Structure (SMILES): O=C(NOCCO)c1cc2[nH]cnc2c(F)c1Nc1ccc(Br)cc1Cl [desmethyl selumetinib]

Accumulation at steady state [1]: ≤ 2 fold
Geometric mean minimum plasma concentration (Ctrough) [1]: 0.101−0.456 µmol/L
Time of Cmax after dosing [1]: ≤ 2 h
tmax (clinical): 1 to 1.96 h
Structure (SMILES): Cn1cnc2c(F)c(Nc3ccc(Br)cc3Cl)c(C(=O)NOCCO)cc21 [selumetinib]
Objective response rates (advanced cancers): up to 15%
Rates of treatment-related eye disorders (patients; selumetinib combination therapy with other agents (chemotherapies, targeted therapies)): up to 40%
Rates of treatment-related eye disorders (patients; selumetinib monotherapy, previous studies): 10−20%
